From patent US11931335B2, “Enhancing autophagy or increasing longevity by administration of urolithins or precursors thereof” (Amazentis SA, priority 2012, dated 2024)
“Also recorded” adds a separate entry of the source. Where two headings read alike, the source gives them in different places.

Key:
[1] = test system: C. elegans wild-type Bristol N2; assay: Lifespan of wild-type C. elegans; format: in vivo; conditions: concentration of 50 µM; exposed from eggs; FIG. 4
Protocol: C. elegans strains were cultured at 20° C. on nematode growth media (NGM) agar plates seeded with E. coli strain OP50. Strain used was wild-type Bristol N2 provided by the Caenorhabditis Genetics Center (University of Minnesota). All Compounds were dissolved in DMSO. Animals were exposed to compounds from eggs on plates seeded with live OP50 bacteria. Control plates were prepared with the corresponding concentrations of DMSO (0.1%). For lifespan tests, worms were observed using a Nikon SMZ1500 stereomicroscope (Nikon, Melville, NY, USA). […] After 3 days (corresponding to day 0), newly developed 60 to 100 L4 worms were used per condition, scored and transferred to fresh plates every 3 days starting from day 1 (young adult worms). All lifespan experiments were performed at 20° C.
Lifespan assays were performed with (A) wild-type (N2), (B) sir-2.1(ok434) mutant, (C) aak-2(ok524), (D) daf-16(mu86), (E) eat-2(ad465) and (F) daf-2(e1370) mutant strains of C. elegans maintained during their full life on plates supplemented with either 50 μM of urolithin A or with a control treatment and seeded with OP50 bacteria. Control plates without urolithin A contained an equivalent concentration of DMSO. Worm lifespan assays were performed at 20° C.

[2] = test system: undifferentiated C2C12 mouse myoblasts; assay: LC3B flow cytometry in C2C12 myoblasts; format: cell-based; conditions: 100 μM, 24 hrs, FIG. 26
Protocol: To determine the ability of urolithin A to induce autophagy in mouse muscle cells, undifferentiated C2C12 mouse myoblasts were seeded in T25 flasks and incubated overnight. Cells were incubated in 5% CO2 at 37° C. These cells were treated with one of the urolithins-urolithin A (UA), urolithin B (UB), urolithin C (UC) or urolithin D (UD)—dissolved in a 0.1% solution of DMSO for 24 hours. In one experiment UA, UB, UC and UD were dosed at a concentration of 100 μM for C2C12 myoblast treatment. In a separate study, C2C12 myoblasts were incubated at increasing concentrations of UA (10 μM, 50 μM and 100 μM). For each experiment a control culture was treated with 0.1% DMSO for the same period and served as the untreated control. In the final 30 minutes of incubation, lysosome degradation inhibitor was added to the culture. The cells were then washed with phosphate buffer solution and then treated with a 1% solution of trypsin enzyme to remove the adhesive cells from the cell culture dishes. The cells were then treated with EMD Millipore selective permeabilization reagent to permeabilize the cells so as to make the internal cellular proteins accessible to antibody treatment. Cells were then incubated with antibody to LC3B according to kit protocol (EMD Millipore FlowCellect™ Autophagy LC3 Antibody-based Assay Kit (Cat no. FCCH100171)). The cells were then washed and resuspended in the kit assay buffer. The resulting cells were then run through a flow cytometer and LC3B-FITC fluorescence was quantified to measure the level of LC3B in C2C12 cells for the various treatments. When cells undergo autophagy their intracellular levels of LC3-II increase which is detected by this method. This autophagy can be detected by fluorescent antibody labeling of LC3B, which can be measured quantitatively using flow cytometry. An increase in cellular autophagy is reflected by an increasing signal in the histogram of LC3B FITC.

[3] = test system: C. elegans wild-type Bristol N2; conditions: Genotype: N2, fed live E. coli (OP50), cited from earlier work
[4] = test system: C. elegans; assay: Pharyngeal pumping in C. elegans; format: in vivo; conditions: day 14 (aged worms); 50 μM; FIG. 11
Protocol: To examine the effect of urolithins on muscle function, pharyngeal pumping was examined in C. elegans worms at day 7 and day 14. Worms were observed using a Nikon SMZ1500 stereomicroscope (Nikon, Melville, NY, USA). Ten L4 worms were transferred on plates containing NGM medium with vehicle (DMSO 0.1%, final concentration) or the compound of interest (urolithin A (UA), urolithin B (UB), urolithin C (UC), urolithin D (UD)) dissolved in DMSO (final concentration 50 μM) and seeded with E. coli RNAi clones as indicated. After 3 days (corresponding to day 0), newly developed 60 to 100 L4 worms were used per condition, scored and transferred to fresh plates every 3 days starting from day 1 (young adult worms). Experiments were performed at 20° C.
The pharyngeal pumping rates at day 7 and 14 were measured for 10 worms by transferring single worms to an unseeded plate and scoring for pharyngeal pumping under a dissecting microscope for 30 seconds. The pharyngeal pumping rates were then computed by extrapolating the pumping made by worms during this 30 second period.

[5] = test system: C. elegans wild type (N2, Bristol); assay: Mobility tracking of C. elegans during aging; format: in vivo; conditions: days 1, 3, 5 and 8 of adulthood; 50 μM; FIG. 12
Protocol: To examine the effect of urolithins on muscle activity during aging, C. elegans mobility was examined over time. Synchronized populations of wild-type nematodes were prepared by standard methods and cultivated at 20° C. on NGM agar containing E. Coli (OP50) with or without test compounds (ellagic acid (EA), urolithins A (UA), and B (UB)). At Day 0, five plates were prepared, each containing 10 young adult worms. Worms were assayed for mobility at different ages, day 1, 3, 5 and 8 of adulthood. The wild type (N2, Bristol) worm strain was employed for these studies.
For C. elegans movement tracking, 45 seconds of video were recorded using a Nikon DS-L2/DS-Fi1 camera and controller setup, attached to both a computer and a standard bright field microscope, tracking an entire plate of 10 worms, with 5 plates per condition. The movement of worms during this time was calculated using an adapted version of the freely-available software Parallel Worm Tracker for MATLAB. The total movement over the 45 second tracking was averaged across all worms for each condition. This experiment was repeated twice with between 40 and 70 worms per condition.

[6] = test system: C. elegans; assay: Time-lapse motility of C. elegans; format: in vivo; conditions: 50 μM; days 8, 14 and 16; FIG. 13
Excerpt: Briefly, worms were observed using a Nikon SMZ1500 stereomicroscope (Nikon, Melville, NY, USA). […] Experiments were repeated three times.

## O=c1oc2c(O)c(O)ccc2c2cc(O)c(O)cc12 [Urolithin D, urolithin D]
[1]
  effect on lifespan in C. elegans: extended the lifespan
[2]; listed as UD
  LC3B signal (shift of the histogram): increasing signal of LC3B; also recorded: increase in autophagy

## NCCCCNCCCN [Spermidine, spermidine]
[3]; dose 200 μM
  Mean Life Extension (%): 15%

## O=c1oc2cc(O)ccc2c2cc(O)c(O)cc12 [Urolithin C, urolithin C]
[1]
  effect on lifespan in C. elegans: extended the lifespan
[2]; listed as UC
  LC3B signal (shift of the histogram): increasing signal of LC3B; also recorded: increase in autophagy

## O=c1oc2cc(O)ccc2c2ccccc12 [Urolithin B, urolithin B]
[1]
  effect on lifespan in C. elegans: extended the lifespan
[4]
  pharyngeal pumping (muscle function): decreases the age related decline in muscle activity
[5]
  age related mobility decline: marked ability to reduce muscle function decline
[6]
  motility (time-lapse traces): strongest effect
[2]; listed as UB
  LC3B signal (shift of the histogram): increasing signal of LC3B; also recorded: increase in autophagy

## CN(C)C(=N)NC(=N)N [Metformin, N,N-Dimethylimidodicarbonimidic diamide]
[3]; dose 50 μM
  Mean Life Extension (%): 27%

## CO[C@H]1C[C@@H]2CC[C@@H](C)[C@@](O)(O2)C(=O)C(=O)N2CCCC[C@H]2C(=O)O[C@H]([C@H](C)C[C@@H]2CC[C@@H](O)[C@H](OC)C2)CC(=O)[C@H](C)/C=C(\C)[C@@H](O)[C@@H](OC)C(=O)[C@H](C)C[C@H](C)/C=C/C=C/C=C/1C [Rapamycin, (3S,6R,7E,9R,10R,12R,14S,15E,17E,19E,21S,23S,26R,27R,34aS)-9,10,12,13,14,21,22,23,24,25,26,27,32,33,34,34a-hexadecahydro-9,27-dihydroxy-3-[(1R)-2-[(1S,3R,4R)-4-hydroxy-3-methoxycyclohexyl]-1-methylethyl]-10,21-dimethoxy-6,8,12,14,20,26-hexamethyl-23,27-epoxy-3H-pyrido[2,1-c][1, 4]-oxaazacyclohentriacontine-1,5,11,28,29(4H,6H,31H)-pentone]
[3]; dose 100 μM
  Mean Life Extension (%): 19%

## O=c1oc2c(O)c(O)cc3c(=O)oc4c(O)c(O)cc1c4c23 [Ellagic acid, ellagic acid]
[1]
  effect on lifespan in C. elegans: no effects
[5]
  age related mobility decline: no effect

## Oc1ccc(/C=C/c2cc(O)cc(O)c2)cc1 [Resveratrol, 3,5,4′-trihydroxy-trans-stilbene]
[3]; dose 100 μM
  Mean Life Extension (%): 6.2-12.6%
[3]; dose 100 μM, listed as resveratrol
  Mean Life Extension (%): 12.6%
